# Test results reported in PMC4446618, “SAR of Sponge-Inspired Hemibastadin Congeners Inhibiting Blue Mussel PhenolOxidase” (Marine Drugs, 2015).
# Like-named read-outs stand apart in the source and are kept apart here.
# Legend:
# [1] = target: blue mussel phenoloxidase (PO); assay: Blue mussel PO inhibition assay; format: biochemical, Mytilus edulis; conditions: for IC50: purified enzyme, 25 °C, 10 mM L-DOPA, 50 mM phosphate buffer pH 6.8, 2 h incubation, triplicate; for enzyme inhibitory activity towards blue mussel PO (in words): compared to DBHB (1)
# Protocol: PO activity was measured spectrophotometrically as described earlier. The purified enzyme was incubated at 25 °C with 10 mM L-DOPA in 50 mM phosphate buffer of pH 6.8. PO activity was determined by monitoring the increase of absorbance at 475 nm. One unit of enzyme activity was defined as the amount of enzyme that catalyzes the formation of 1 μmol dopachrome per minute under the described experimental conditions. Hemibastadin congeners were added to the assay at concentrations of up to 50 μg/mL. In addition, the biocide TBT (10 μg/mL) was used as a positive standard. Aliquots of pure enzyme were incubated for 2 h with hemibastadin analogues, then the enzyme activity was recorded with L-DOPA or catechol (10 mM) as substrates. All assays were run in triplicate. The results are presented as the concentration of compounds that reduces enzyme velocity by 50% (IC50 values). IC50 values were calculated using MINITAB (Version 14).
# barnacle larvae = tested on: barnacle larvae; design: method as in PMID 17713818; conditions: cited from earlier work
# [2] = target: blue mussel phenoloxidase (PO); design: method as in PMID 21547349; conditions: cited from earlier work; for IC50: data derived from a previous investigation, read-out: IC50, inhibition of blue mussel phenoloxidase (PO)
IC50 [1] [µM],Structure (SMILES),further results
0.81,"O=C(NCCc1cc(Br)c(O)c(Br)c1)/C(Cc1cc(Br)c(O)c(Br)c1)=N/O [Compound 1, 5,5′-dibromohemibastadin-1]",antifouling activity (in words) (barnacle larvae): strong antifouling activity
–,"O=C(NCCc1ccc(O)cc1)/C(Cc1ccc(O)cc1)=N/O [Compound 2, Norbromohemibastadin-1]",IC50 [2]: 2.41 µM
–,"NC(Cc1ccc(O)cc1)C(=O)NCCc1ccc(O)cc1 (stereo not shown) [Compound 3, Tyrosinyltyramine]",inhibition of blue mussel PO (in words) [2]: completely inactive; IC50 [2]: > 100 µM
1.14,"O=C(NCCc1cc(I)c(O)c(I)c1)/C(Cc1cc(I)c(O)c(I)c1)=N/O [Compound 4, Tetraiodo-norbromohemibastadin-1]",–
1.19,"O=C(NCCc1cc(Cl)c(O)c(Cl)c1)/C(Cc1cc(Cl)c(O)c(Cl)c1)=N/O [Compound 5, Tetrachloro-norbromohemibastadin-1]",–
18.9 ± 0.77,"CO/N=C(\Cc1cc(Br)c(OC)c(Br)c1)C(=O)NCCc1cc(Br)c(OC)c(Br)c1 [Compound 6, Tri-O-methyl-5,5′-dibromohemibastadin-1]",reduction of the enzyme inhibitory activity compared to the parent compound 1 ([1]; relative to DBHB (1)): more than twenty-fold
11.7 ± 0.49,"O=C(NC1CCCCC1)/C(Cc1cc(Br)c(O)c(Br)c1)=N/O [Compound 7, N-cyclohexyl-3-(3,5-dibromo-4-hydroxyphenyl)-2-(2-hydroxyimino)-propanamide]",–
17.2 ± 0.76,"CC(C)CNC(=O)/C(Cc1cc(Br)c(O)c(Br)c1)=N/O [Compound 8, N-(2-methyl-propyl)-3-(3,5-dibromo-4-hydroxyphenyl)-2-(2-hydroxyimino)-propanamide]",–
16.3 ± 0.83,"CCCCCCNC(=O)/C(Cc1cc(Br)c(O)c(Br)c1)=N/O [Compound 9, N-hexyl-3-(3,5-dibromo-4-hydroxyphenyl)-2-(2-hydroxyimino)-propanamide]",–
22.7 ± 0.88,"O=C(NCCc1ccccc1)/C(Cc1cc(Br)c(O)c(Br)c1)=N/O [Compound 10, N-2-phenylethyl-3-(3,5-dibromo-4-hydroxyphenyl)-2-(2-hydroxyimino)-propanamide]",enzyme inhibitory activity towards blue mussel PO (in words) [1]: strong reduction of inhibitory activity
33.2 ± 1.72,"O=C(NCCc1c[nH]cn1)/C(Cc1cc(Br)c(O)c(Br)c1)=N/O [Compound 11, N-[2-(4-imidazolyl)-ethyl]-3-(3,5-dibromo-4-hydroxyphenyl)-2-(2-hydroxyimino)-propanamide]",melting point: 130 °C
> 100,"O=C(NCCc1c[nH]c2ccccc12)/C(Cc1cc(Br)c(O)c(Br)c1)=N/O [Compound 12, N-[2-(3-indolyl)-ethyl]-3-(3,5-dibromo-4-hydroxyphenyl)-2-(2-hydroxyimino)-propanamide]",enzyme inhibitory activity towards blue mussel PO (in words) [1]: complete loss of activity
–,"CC(=O)C(C)=NO [Compound 13, 2,3-butanedione monoxime, reference compound]",IC50 [2]: 8.7 µM
